Measured values as given in patent US10670605B2, “Cysteine reactive probes and uses thereof” (The Scripps Research Institute, priority 2015, dated 2020).
Counter-ions that a name gives are not always drawn.

Key:
Test in all cases: isoTOP-ABPP of compound-treated primary human T cells
Type in all cases: cell-based
[1] = molecular target: Cys residues in primary human T cells (Homo sapiens, UniProt O00170); settings: AIP C122 (O00170)
[2] = molecular target: Cys residues in primary human T cells (Homo sapiens, UniProt Q15005); settings: SPCS2 C17 (Q15005)
[3] = molecular target: T1, Cys residues in primary human T cells (Homo sapiens, UniProt Q96I15); settings: SCLY C22 (Q96115)
T1 sequence (Q96I15 1-445): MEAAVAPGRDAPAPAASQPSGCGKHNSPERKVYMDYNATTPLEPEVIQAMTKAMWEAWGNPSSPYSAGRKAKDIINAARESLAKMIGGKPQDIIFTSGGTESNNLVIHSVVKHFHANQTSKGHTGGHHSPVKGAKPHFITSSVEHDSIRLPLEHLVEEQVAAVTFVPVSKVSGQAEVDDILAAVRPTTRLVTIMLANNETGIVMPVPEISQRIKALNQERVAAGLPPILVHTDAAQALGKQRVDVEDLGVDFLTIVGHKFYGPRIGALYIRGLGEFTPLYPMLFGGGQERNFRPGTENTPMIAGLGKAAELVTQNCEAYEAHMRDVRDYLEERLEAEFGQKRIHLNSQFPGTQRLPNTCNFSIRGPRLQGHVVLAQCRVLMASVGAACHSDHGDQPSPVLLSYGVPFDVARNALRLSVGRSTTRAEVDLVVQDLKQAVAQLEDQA

[4] = molecular target: Cys residues in primary human T cells (Homo sapiens, UniProt Q7Z2W4); settings: ZC3HAV1 C645 (Q7Z2W4)
[5] = molecular target: Cys residues in primary human T cells (Homo sapiens, UniProt Q96CW5); settings: TUBGCP3 C194 (Q960W5)
[6] = molecular target: Cys residues in primary human T cells (Homo sapiens, UniProt Q7Z4W1); settings: DCXR C244 (Q7Z4W1)
[7] = molecular target: T2, Cys residues in primary human T cells (Homo sapiens, UniProt A6NDG6); settings: PGP C297 (A6NDG6)
T2 sequence (A6NDG6 1-321): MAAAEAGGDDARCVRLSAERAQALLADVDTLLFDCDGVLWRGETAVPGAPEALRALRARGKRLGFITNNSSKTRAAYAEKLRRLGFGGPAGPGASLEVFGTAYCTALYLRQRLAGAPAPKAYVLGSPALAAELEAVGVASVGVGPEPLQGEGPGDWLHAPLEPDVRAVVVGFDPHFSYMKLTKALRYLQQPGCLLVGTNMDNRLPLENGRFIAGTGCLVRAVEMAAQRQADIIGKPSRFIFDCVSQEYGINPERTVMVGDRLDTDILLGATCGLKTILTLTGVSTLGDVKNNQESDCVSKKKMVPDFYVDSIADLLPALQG

[8] = molecular target: T3, Cys residues in primary human T cells (Homo sapiens, UniProt P00813); settings: ADA C75 (P00813)
T3 sequence (P00813 1-363): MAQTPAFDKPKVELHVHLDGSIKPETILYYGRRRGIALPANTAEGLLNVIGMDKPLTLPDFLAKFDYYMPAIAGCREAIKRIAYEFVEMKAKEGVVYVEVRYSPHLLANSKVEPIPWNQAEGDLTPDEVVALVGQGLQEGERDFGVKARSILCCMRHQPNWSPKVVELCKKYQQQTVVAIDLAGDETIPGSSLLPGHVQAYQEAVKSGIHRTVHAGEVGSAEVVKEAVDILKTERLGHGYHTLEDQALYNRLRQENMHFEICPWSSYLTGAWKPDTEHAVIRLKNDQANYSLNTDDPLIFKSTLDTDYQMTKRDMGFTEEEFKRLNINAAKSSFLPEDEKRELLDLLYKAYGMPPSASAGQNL

[9] = molecular target: Cys residues in primary human T cells (Homo sapiens, UniProt O14976); settings: GAK C87 (O14976)
[10] = molecular target: Cys residues in primary human T cells (Homo sapiens, UniProt Q8TB24); settings: RIN3 C942 (Q8TB24)
[11] = molecular target: T4, Cys residues in primary human T cells (Homo sapiens, UniProt Q02556); settings: IRF8 C306 (Q02556)
T4 sequence (Q02556 1-426): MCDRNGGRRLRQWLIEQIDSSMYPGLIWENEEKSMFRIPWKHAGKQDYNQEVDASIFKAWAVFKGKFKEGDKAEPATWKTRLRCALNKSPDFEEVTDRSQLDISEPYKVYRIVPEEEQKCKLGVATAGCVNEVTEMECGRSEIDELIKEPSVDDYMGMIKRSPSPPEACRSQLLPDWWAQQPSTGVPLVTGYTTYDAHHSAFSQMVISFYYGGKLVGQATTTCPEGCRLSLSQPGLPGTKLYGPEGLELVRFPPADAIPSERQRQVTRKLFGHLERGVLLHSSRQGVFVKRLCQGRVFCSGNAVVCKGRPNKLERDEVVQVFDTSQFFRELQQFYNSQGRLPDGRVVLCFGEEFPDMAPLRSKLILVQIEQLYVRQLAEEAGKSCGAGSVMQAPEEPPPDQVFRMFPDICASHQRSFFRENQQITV

Cys residues in primary human T cells (Homo sapiens, UniProt Q7Z4W1), sequence (Q7Z4W1 whole entry): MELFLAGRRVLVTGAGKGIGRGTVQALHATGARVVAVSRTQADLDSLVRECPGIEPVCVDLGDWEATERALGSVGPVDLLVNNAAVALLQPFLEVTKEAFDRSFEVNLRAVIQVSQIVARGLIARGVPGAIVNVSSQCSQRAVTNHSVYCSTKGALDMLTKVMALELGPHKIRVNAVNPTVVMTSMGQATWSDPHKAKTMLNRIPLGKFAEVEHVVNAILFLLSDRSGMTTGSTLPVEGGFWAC
Cys residues in primary human T cells (Homo sapiens, UniProt Q7Z2W4), sequence (Q7Z2W4 whole entry): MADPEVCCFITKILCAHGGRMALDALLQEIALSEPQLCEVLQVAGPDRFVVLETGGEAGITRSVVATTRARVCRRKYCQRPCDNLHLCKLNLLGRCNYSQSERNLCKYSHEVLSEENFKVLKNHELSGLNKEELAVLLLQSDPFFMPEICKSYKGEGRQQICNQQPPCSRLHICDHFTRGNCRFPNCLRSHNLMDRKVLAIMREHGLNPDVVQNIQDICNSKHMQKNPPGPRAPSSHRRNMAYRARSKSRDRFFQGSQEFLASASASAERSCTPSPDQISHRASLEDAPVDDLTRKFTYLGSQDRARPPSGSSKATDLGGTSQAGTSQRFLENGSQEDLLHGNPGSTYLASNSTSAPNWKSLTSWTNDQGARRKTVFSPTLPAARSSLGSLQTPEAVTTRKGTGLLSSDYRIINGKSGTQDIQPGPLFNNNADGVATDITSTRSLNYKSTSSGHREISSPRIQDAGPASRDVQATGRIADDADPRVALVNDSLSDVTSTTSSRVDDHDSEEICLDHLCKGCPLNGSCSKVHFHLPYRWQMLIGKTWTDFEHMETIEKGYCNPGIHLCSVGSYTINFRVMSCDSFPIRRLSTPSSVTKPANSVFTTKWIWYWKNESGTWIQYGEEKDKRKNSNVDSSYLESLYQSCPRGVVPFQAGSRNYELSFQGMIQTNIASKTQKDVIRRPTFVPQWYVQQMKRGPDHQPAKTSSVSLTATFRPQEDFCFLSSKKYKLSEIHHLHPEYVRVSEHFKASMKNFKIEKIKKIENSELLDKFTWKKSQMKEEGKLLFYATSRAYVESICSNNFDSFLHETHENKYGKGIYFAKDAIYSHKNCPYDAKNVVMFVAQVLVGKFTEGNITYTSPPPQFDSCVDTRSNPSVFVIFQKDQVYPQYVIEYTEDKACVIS
Cys residues in primary human T cells (Homo sapiens, UniProt Q15005), sequence (Q15005 whole entry): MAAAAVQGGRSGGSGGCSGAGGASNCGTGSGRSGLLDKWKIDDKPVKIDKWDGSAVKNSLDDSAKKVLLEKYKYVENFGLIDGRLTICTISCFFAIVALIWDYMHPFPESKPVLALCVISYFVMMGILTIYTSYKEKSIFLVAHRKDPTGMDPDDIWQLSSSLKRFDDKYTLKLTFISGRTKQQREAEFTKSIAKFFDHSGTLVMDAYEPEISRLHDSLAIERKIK
Cys residues in primary human T cells (Homo sapiens, UniProt O14976), sequence (O14976 whole entry): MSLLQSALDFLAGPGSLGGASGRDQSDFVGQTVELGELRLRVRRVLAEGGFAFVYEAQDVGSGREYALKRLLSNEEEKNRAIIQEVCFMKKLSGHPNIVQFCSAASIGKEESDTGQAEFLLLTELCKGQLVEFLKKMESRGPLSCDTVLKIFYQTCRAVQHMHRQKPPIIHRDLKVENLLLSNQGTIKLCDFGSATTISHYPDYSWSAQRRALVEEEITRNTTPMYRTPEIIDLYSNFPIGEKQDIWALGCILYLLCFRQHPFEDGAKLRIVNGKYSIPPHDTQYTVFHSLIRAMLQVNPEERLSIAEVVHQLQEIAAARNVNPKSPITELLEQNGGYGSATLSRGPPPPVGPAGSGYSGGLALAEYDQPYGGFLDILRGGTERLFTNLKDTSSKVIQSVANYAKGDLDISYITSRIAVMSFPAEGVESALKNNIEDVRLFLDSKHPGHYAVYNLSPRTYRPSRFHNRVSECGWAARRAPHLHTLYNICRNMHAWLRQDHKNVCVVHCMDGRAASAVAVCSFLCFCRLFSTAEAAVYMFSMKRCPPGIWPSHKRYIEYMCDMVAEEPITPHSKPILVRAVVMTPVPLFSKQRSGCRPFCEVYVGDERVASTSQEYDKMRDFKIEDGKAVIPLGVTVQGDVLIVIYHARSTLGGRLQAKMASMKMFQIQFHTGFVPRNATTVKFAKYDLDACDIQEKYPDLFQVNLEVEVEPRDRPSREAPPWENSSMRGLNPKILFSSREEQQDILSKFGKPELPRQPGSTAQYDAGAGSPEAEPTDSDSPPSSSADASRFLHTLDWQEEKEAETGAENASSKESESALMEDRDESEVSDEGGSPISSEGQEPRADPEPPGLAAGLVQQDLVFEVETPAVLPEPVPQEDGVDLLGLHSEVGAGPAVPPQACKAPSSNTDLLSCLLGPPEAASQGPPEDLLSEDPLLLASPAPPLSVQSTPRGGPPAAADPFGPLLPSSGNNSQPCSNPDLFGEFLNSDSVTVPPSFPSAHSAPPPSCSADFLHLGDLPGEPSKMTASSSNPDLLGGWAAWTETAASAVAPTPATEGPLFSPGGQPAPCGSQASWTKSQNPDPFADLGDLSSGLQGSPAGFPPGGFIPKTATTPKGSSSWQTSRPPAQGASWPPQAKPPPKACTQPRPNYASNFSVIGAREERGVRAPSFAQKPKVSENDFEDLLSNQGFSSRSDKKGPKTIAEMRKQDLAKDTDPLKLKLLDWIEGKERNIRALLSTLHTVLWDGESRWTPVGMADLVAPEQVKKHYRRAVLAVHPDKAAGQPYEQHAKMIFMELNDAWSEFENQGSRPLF
Cys residues in primary human T cells (Homo sapiens, UniProt Q96CW5), sequence (Q96CW5 whole entry): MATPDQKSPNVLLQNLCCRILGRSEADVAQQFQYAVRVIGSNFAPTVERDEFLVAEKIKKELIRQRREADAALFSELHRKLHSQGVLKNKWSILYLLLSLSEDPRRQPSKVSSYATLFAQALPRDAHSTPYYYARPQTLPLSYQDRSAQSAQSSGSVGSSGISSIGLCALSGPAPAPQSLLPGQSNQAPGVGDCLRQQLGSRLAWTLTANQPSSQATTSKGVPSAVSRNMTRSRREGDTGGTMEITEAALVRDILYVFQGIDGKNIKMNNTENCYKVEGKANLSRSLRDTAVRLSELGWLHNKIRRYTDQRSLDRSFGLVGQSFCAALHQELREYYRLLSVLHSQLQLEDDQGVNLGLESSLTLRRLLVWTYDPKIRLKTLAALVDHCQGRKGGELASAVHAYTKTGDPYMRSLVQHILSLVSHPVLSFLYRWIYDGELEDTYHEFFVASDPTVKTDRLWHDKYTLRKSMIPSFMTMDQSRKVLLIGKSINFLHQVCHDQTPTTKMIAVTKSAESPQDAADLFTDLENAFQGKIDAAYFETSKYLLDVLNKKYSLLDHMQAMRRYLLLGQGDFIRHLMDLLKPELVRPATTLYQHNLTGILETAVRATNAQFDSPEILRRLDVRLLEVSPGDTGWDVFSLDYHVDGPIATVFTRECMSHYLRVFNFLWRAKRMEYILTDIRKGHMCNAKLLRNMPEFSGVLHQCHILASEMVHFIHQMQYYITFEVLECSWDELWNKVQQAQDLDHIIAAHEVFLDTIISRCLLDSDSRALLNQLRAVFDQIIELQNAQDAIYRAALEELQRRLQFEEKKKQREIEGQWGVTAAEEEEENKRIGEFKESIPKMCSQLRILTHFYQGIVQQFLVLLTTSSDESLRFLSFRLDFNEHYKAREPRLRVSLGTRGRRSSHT
Cys residues in primary human T cells (Homo sapiens, UniProt Q8TB24), sequence (Q8TB24 whole entry): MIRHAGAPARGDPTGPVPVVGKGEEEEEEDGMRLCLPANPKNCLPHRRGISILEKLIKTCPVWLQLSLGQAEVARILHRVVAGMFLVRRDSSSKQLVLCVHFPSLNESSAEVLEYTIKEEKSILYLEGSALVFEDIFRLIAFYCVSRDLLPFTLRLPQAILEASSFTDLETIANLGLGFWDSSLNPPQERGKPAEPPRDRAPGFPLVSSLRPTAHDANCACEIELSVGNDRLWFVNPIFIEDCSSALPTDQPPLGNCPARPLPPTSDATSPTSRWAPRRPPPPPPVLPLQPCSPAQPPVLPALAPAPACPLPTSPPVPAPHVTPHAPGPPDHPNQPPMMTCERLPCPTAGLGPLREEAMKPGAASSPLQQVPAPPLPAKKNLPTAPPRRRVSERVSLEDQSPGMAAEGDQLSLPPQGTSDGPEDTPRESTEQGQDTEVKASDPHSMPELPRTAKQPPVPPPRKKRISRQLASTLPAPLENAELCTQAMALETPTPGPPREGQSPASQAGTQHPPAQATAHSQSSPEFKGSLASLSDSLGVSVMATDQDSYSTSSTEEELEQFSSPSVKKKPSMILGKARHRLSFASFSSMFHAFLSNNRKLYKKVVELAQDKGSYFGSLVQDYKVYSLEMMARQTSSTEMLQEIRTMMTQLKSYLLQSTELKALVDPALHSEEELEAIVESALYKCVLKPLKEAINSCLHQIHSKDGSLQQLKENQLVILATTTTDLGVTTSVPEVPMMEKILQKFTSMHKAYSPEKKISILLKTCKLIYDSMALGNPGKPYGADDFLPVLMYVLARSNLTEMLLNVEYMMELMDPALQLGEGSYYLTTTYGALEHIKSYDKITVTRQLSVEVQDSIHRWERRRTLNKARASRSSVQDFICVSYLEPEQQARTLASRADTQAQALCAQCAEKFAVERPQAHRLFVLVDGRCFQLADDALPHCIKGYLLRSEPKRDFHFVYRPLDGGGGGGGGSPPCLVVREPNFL
Cys residues in primary human T cells (Homo sapiens, UniProt O00170), sequence (O00170 whole entry): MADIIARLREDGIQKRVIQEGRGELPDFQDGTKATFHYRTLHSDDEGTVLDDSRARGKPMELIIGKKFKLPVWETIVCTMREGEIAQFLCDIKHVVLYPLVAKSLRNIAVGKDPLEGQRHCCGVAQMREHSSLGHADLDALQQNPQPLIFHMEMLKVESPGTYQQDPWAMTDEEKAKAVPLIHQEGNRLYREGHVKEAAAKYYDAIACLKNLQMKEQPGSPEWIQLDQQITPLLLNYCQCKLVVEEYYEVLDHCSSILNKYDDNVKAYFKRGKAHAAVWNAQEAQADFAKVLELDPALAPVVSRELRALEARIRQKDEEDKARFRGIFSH

## COC(=O)/C=C/C(=O)OC [DMF, dimethyl fumarate]
[1]; DMF 50 μM 2h
  R value (DMSO/DMF): 3.05
[1]; DMF 50 μM 4h
  R value (DMSO/DMF): 6.14
[2]; DMF 10 μM 4h
  R value (DMSO/DMF): 1.42
[2]; DMF 25 μM 4h
  R value (DMSO/DMF): 2.41
[2]; DMF 50 μM 1h
  R value (DMSO/DMF): 2.25
[2]; DMF 50 μM 2h
  R value (DMSO/DMF): 3.86
[2]; DMF 50 μM 4h
  R value (DMSO/DMF): 5.09
[3]; DMF 10 μM 4h
  R value (DMSO/DMF): 1.31
[3]; DMF 25 μM 4h
  R value (DMSO/DMF): 2.16
[3]; DMF 50 μM 1h
  R value (DMSO/DMF): 1.9
[3]; DMF 50 μM 2h
  R value (DMSO/DMF): 2.16
[3]; DMF 50 μM 4h
  R value (DMSO/DMF): 4.04
[4]; DMF 10 μM 4h
  R value (DMSO/DMF): 1.46
[4]; DMF 25 μM 4h
  R value (DMSO/DMF): 2.52
[4]; DMF 50 μM 1h
  R value (DMSO/DMF): 2.36
[4]; DMF 50 μM 2h
  R value (DMSO/DMF): 3.13
[4]; DMF 50 μM 4h
  R value (DMSO/DMF): 6.28
[5]; DMF 50 μM 2h
  R value (DMSO/DMF): 2.44
[5]; DMF 50 μM 4h
  R value (DMSO/DMF): 4.94
[6]; DMF 10 μM 4h
  R value (DMSO/DMF): 2.3
[6]; DMF 50 μM 1h
  R value (DMSO/DMF): 1.29
[6]; DMF 50 μM 2h
  R value (DMSO/DMF): 2.76
[6]; DMF 50 μM 4h
  R value (DMSO/DMF): 4.24
[7]; DMF 50 μM 1h
  R value (DMSO/DMF): 3.06
[7]; DMF 50 μM 2h
  R value (DMSO/DMF): 4.21
[7]; DMF 50 μM 4h
  R value (DMSO/DMF): 10.77
[8]; DMF 10 μM 4h
  R value (DMSO/DMF): 2.29
[8]; DMF 50 μM 1h
  R value (DMSO/DMF): 2.51
[8]; DMF 50 μM 2h
  R value (DMSO/DMF): 5.08
[8]; DMF 50 μM 4h
  R value (DMSO/DMF): 20
[9]; DMF 10 μM 4h
  R value (DMSO/DMF): 1.36
[9]; DMF 50 μM 2h
  R value (DMSO/DMF): 4.79
[10]; DMF 50 μM 2h
  R value (DMSO/DMF): 3
[10]; DMF 50 μM 4h
  R value (DMSO/DMF): 5.7
[11]; DMF 10 μM 4h
  R value (DMSO/DMF): 1.9
[11]; DMF 50 μM 1h
  R value (DMSO/DMF): 1.66
[11]; DMF 50 μM 4h
  R value (DMSO/DMF): 5.32
